Assay results: patent US20250242030A1, “COMPOSITIONS COMPRISING A NON-BIOABSORBABLE POLYMER AND METABOLIC INHIBITOR” (Board of Trustees of Michigan State University, priority 2022, published 2025)

Experiments:
Format in all cases: cell-based, mouse
BMDMs [1] = assay: Seahorse assay (ECAR, PER, OCR) in BMDMs; settings: PE-exposed BMDMs in presence of inhibitor
Source text: (§1) BMDMs derived from C57BL/6J mice (Jackson Laboratories) of 3-4 months were used. Mouse embryonic fibroblasts (NIH 3T3 cells, hereafter “MEFs”) were stably transfected with a Sleeping Beauty transposon plasmid (pLuBIG) having a bidirectional promoter driving an improved firefly luciferase gene (fLuc) and a fusion gene encoding a Blasticidin-resistance marker (BsdR) linked to eGFP (BGL). For temporal (IVIS) experiments lasting 12 days, 5,000 BGL cells were initially seeded in each well of a 96-well tissue culture plate in 200 μL if complete medium. For ATP, crystal violate, and Seahorse assays, 20,000 wild-type MEFs were seeded. For ATP, crystal violate, and cytokine/chemokine assays, 50,000 BMDMs were seeded. 60,000 BMDMs were seeded for the Seahorse assays. For IVIS experiments with glycolytic inhibitors, 20,000 BGL cells were initially seeded. Complete medium comprised DMEM medium, 10% heat inactivated fetal bovine serum (FBS), and 100 U/mL penicillin/streptomycin (all from ThermoFisher Scientific).
To determine the metabolic pathways responsible for the observed bioenergetic changes, Seahorse assays were used to measure oxygen consumption rate (OCR), extracellular acidification rate (ECAR) and lactate-linked proton efflux rate (PER) in a customized medium (pH 7.4). Basal measurements of OCR, ECAR, and PER were obtained in real time using the Seahorse XFe-96 Extracellular Flux Analyzer (Agilent Technologies). Prior to running the assay, cell culture medium was washed with and replaced by the Seahorse XF DMEM medium (pH 7.4) supplemented with 25 mM D-glucose and 4 mM glutamine. The Seahorse plates were equilibrated in a non-CO2 incubator for an hour prior to the assay. The Seahorse ATP rate and cell energy phenotype assays were run according to manufacturer's instruction and all reagents for the Seahorse assays were sourced from Agilent Technologies. Wave software (Version 2.6.1) was used to export Seahorse data directly as means±standard deviation (SD).
Seahorse assays measures ECAR as an index of glycolytic flux, OCR as an index of oxidative phosphorylation and PER as an index of monocarboxylate transporter function in live cells, and are used to assess for metabolic reprogramming. […] (FIGS. 3a-c)
(§2) Preparation of ultra-high molecular weight polyethylene particles are described in Example 1 above. The bioenergetics measurements, Seahorse assay, crystal violet assay, and cytokine and chemokine assays were conducted as described in Example 1. Inhibitors rotenone, metformin, oligomycin, and antimycin A were obtained from MilliporeSigma. The reagents were reconstituted in complete medium (described above).

MEFs [2] = assay: Total ATP levels in lysed MEFs (ATP/ADP kit); settings: PE-exposed MEFs with inhibitor of mitochondrial respiration
Protocol: (§3) Bioluminescence was measured using an IVIS Spectrum in vivo imaging system (PerkinElmer) after addition of 150 μg/mL of D-luciferin (PerkinElmer). Living Image (Version 4.5.2, PerkinElmer) was used for acquiring bioluminescence on the IVIS Spectrum. Standard ATP/ADP kits (Sigma-Aldrich) containing D-luciferin, luciferase, and cell lysis buffer were used according to manufacturer's instructions. Luminescence at integration time of 1,000 ms was obtained using the SpectraMax M3 Spectrophotometer (Molecular Devices) and SoftMax Pro software (ver. 7.0.2).
as §1

BMDMs [3] = assay: Bioenergetic (ATP) levels in BMDMs; settings: PE-exposed BMDMs with inhibitor of mitochondrial respiration
Protocol: as §3, §1, §2

BMDMs [4] = assay: Cytokine and chemokine multiplex assay in BMDM supernatants
Source text: as §1
Cytokine and chemokine levels were measured using a MILLIPLEX MAP mouse magnetic bead multiplex kit (MilliporeSigma) to assess for IL-6, MCP-1, TNF-α, IL-1β, IL-4, IL-10, IFN-γ, and 1L-13 protein expression in supernatants. Data was acquired using Luminex 200 (Luminex Corporation) by the xPONENT software (Version 3.1, Luminex Corporation). […] Values exceeding the dynamic range of the assay, in accordance with manufacturer's instruction, were excluded. Additionally, IL-6 ELISA kits (RayBiotech) for supernatants were used according to manufacturer's instructions.

BMDMs [5] = assay: Crystal violet cell viability assay in BMDMs; settings: BMDMs treated with metabolic inhibitors; data not shown
Source text: as §1
(§4) Cell viability was measured using the crystal violet staining assay at room temperature. 50 μL media containing cells is incubated with 150 μL of 99.9% methanol for 15 minutes. […] Absorbance (optical density) was acquired at 570 nm using the SpectraMax M3 Spectrophotometer (Molecular Devices) and SoftMax Pro software (ver. 7.0.2).

MEFs [6] = assay: Crystal violet cell viability assay in MEFs; settings: MEFs treated with metabolic inhibitors; data not shown
Source text: as §1, §4

macrophages [7] = assay: mitoSOX Red staining for mitochondrial ROS; settings: added to PE-exposed macrophages, compared to macrophages exposed to only PE
Source text: To test whether increased OCR at complex I (FIG. 8c) fueled ROS production in the mitochondrion, macrophages were stained with mitoSOX Red. Exposure to LPS or PE particles increased mitochondrial reactive oxygen species (ROS) relative to untreated macrophages. Addition of metformin decreased mitochondrial ROS compared to macrophages exposed to only PE. Mitochondrial membrane potential is critical for reverse electron transport (RET) at complex I, and subsequent generation of mitochondrial ROS.

macrophages [8] = assay: TMRM staining for mitochondrial membrane potential; settings: metformin added to exposed cells
[9] = 1 mM inhibitor, BMDMs exposed to ultra-high molecular weight PE particles
[10] = metformin, BMDMs treated with PE

## CC[C@H]1/C=C/C=C/C[C@@H](C)[C@H](O)[C@@](C)(O)C(=O)[C@@H](C)[C@H](O)[C@@H](C)C(=O)[C@@H](C)[C@H](O)[C@@H](C)/C=C/C(=O)O[C@@H]2[C@H](C)[C@H](CC1)O[C@]1(CC[C@H](C)[C@H](C[C@@H](C)O)O1)[C@H]2C [oligomycin]
BMDMs [1]
  OCR: affected
MEFs [2]
  ATP levels in PE-exposed cells: did not impact
BMDMs [3]
  ATP levels in PE-exposed cells: did not impact

## NOCC(=O)O [aminooxyacetic acid]
BMDMs [4]; [9]
  IL-4: increased
  IL-10 levels: increased
  expression of IL-1β: decreased
  expression of IL-6: decreased
  expression of MCP-1: decreased
  expression of TNF-α: decreased

## C=C(C)[C@H]1Cc2c(ccc3c2O[C@@H]2COc4cc(OC)c(OC)cc4[C@@H]2C3=O)O1 [rotenone]
BMDMs [1]
  ECAR: did not impact
  OCR: decrease
  PER: did not impact
MEFs [2]
  ATP levels in PE-exposed cells: did not impact
BMDMs [3]
  ATP levels in PE-exposed cells: did not impact

## O=CC[C@@H](O)[C@H](O)[C@H](O)CO [2DG, 2-deoxyglucose]
BMDMs [5]
  cell viability: did not lower
BMDMs [4]; [9]
  IL-4: increased
  expression of IL-1β: decreased
  expression of IL-6: decreased
  expression of MCP-1: decreased
  expression of TNF-α: decreased
MEFs [6]
  cell viability: did not lower

## CN(C)C(=N)N=C(N)N [metformin]
Macrophages [7]
  mitochondrial ROS: decreased
BMDMs [4]; [10]
  IL-1β: decreases
  IL-4: did not increase
  IL-6: decreases
  IL-10: did not increase
  MCP-1: decreases
  TNF-α expression: not mitigated
BMDMs [1]
  ECAR: reduced
  OCR: reduced
  PER: reduced
MEFs [2]
  ATP levels in PE-exposed cells: did not impact
BMDMs [3]
  ATP levels in PE-exposed cells: did not impact
Macrophages [8]
  elevated mitochondrial membrane potential: decreases

## O=C(C=Cc1cccnc1)c1ccncc1 [3PO, 3-(3-pyridinyl)-1-(4-pyridinyl)-2-propen-1-one]
BMDMs [5]
  cell viability: did not lower
BMDMs [4]; [9]
  IL-4: increased
  expression of IL-1β: decreased
  expression of IL-6: decreased
  expression of MCP-1: decreased
  expression of TNF-α: decreased
MEFs [6]
  cell viability: did not lower
